Activity calls are given as the source filed them. The calls are words filed in the database; no cut-off is given here.
Experiments:
[1] = molecular target: Serine/threonine-protein kinase SMG1 (Homo sapiens) (UniProt Q96Q15); assay: Inhibition of SMG1 ATP labeling site in human Huh-7 cell lysate at 1 uM by KiNativ Profiling analysis relative to control; type: subcellular
[2] = molecular target: T1, Serine/threonine-protein kinase 3 (Homo sapiens) (UniProt Q13188); assay: Inhibition of MST2 Lys2 labeling site harbouring IHRDIKAGNILLNTEGHAK in human Huh-7 cell lysate at 1 uM by KiNativ Profiling analysis relative to control; type: subcellular
T1 sequence (whole entry): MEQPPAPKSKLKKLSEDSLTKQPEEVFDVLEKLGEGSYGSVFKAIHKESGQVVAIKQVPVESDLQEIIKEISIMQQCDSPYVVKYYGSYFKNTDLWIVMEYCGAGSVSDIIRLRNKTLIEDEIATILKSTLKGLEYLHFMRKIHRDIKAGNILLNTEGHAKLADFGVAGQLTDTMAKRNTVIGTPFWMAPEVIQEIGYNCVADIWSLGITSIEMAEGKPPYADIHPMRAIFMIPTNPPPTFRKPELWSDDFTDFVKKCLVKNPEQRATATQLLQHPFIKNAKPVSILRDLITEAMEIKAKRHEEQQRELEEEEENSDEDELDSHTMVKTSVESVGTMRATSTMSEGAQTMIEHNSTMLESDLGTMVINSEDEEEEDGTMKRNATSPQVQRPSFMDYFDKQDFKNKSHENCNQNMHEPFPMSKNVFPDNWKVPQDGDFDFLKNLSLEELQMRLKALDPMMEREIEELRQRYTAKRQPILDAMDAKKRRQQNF

[3] = molecular target: Serine/threonine-protein kinase 10 (Homo sapiens) (UniProt O94804); assay: Inhibition of LOK Lys2 labeling site in human Huh-7 cells at 1 uM by KiNativ Profiling analysis relative to control; type: cell-based
[4] = molecular target: Ribosomal protein S6 kinase alpha-3 (Homo sapiens) (UniProt P51812); assay: Inhibition of RSK2 domain1 Lys2 labeling site in human Huh-7 cell lysate at 1 uM by KiNativ Profiling analysis relative to control; type: subcellular
[5] = molecular target: Calcium/calmodulin-dependent protein kinase type 1 (Homo sapiens) (UniProt Q14012); assay: Inhibition of CaMK1a K1 labeling site in human Huh-7 cells at 1 uM by KiNativ Profiling analysis relative to control; type: cell-based
[6] = molecular target: T2, Dual specificity mitogen-activated protein kinase kinase 6 (Homo sapiens) (UniProt P52564); assay: Inhibition of MAP2K6 K2 labeling site in human Huh-7 cells at 1 uM by KiNativ Profiling analysis relative to control; type: cell-based
T2 sequence (whole entry): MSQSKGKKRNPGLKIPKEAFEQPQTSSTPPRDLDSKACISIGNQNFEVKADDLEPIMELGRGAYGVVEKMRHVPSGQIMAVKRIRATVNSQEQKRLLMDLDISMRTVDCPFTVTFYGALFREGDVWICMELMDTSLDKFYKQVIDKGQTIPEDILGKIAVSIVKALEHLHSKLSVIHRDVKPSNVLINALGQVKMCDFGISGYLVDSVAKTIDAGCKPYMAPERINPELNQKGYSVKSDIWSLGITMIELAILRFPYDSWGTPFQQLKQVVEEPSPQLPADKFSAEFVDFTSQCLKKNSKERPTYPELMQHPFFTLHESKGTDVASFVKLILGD

[7] = molecular target: T3, Mitogen-activated protein kinase kinase kinase 2 (Homo sapiens) (UniProt Q9Y2U5); assay: Inhibition of MAP3K2 Lys2 labeling site in human A-375 cells at 0.5 uM by KiNativ Profiling analysis relative to control; type: cell-based
T3 sequence (whole entry): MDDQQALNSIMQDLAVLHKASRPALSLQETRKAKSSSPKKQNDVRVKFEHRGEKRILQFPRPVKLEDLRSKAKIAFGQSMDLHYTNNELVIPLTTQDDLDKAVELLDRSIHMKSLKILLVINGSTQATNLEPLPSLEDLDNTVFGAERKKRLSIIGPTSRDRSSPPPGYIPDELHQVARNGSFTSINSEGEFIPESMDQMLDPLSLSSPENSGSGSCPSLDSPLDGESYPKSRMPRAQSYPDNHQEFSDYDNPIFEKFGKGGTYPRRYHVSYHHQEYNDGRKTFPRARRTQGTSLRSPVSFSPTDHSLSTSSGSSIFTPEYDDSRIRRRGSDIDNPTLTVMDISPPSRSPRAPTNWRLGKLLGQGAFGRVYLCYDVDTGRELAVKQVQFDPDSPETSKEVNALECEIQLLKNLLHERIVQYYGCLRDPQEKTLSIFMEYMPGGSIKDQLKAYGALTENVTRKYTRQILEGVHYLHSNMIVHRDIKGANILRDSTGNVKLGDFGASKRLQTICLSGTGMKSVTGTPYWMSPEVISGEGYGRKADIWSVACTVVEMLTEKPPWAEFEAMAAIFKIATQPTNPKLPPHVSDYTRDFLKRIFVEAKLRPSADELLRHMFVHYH

[8] = molecular target: Dual specificity protein kinase CLK1 (Homo sapiens) (UniProt P49759); assay: Inhibition of CLK1 (unknown origin) at 10 uM by Ambit Kinomescan binding assay
[9] = molecular target: T4, Aurora kinase A (Homo sapiens) (UniProt O14965); assay: Inhibition of AurA K2 labeling site harbouring DIKPENLLLGSAGELK in human Huh-7 cells at 10 uM by KiNativ Profiling analysis relative to control; type: cell-based
T4 sequence (whole entry): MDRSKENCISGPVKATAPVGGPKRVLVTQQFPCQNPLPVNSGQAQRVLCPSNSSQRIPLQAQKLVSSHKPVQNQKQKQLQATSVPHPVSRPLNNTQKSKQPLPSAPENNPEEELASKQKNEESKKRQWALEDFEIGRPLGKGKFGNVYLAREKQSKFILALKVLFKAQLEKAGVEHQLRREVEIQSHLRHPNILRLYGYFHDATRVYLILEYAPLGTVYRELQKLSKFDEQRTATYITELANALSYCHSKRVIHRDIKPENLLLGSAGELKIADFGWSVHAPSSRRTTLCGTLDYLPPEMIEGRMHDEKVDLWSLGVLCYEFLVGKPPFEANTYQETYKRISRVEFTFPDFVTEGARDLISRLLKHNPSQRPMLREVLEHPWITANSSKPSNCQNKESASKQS

[10] = molecular target: Mitogen-activated protein kinase kinase kinase 10 (Homo sapiens) (UniProt Q02779); assay: Inhibition of MLK2 (unknown origin) at 10 uM by Ambit Kinomescan binding assay
[11] = molecular target: Serine/threonine-protein kinase RIO2 (Homo sapiens) (UniProt Q9BVS4); assay: Inhibition of RIOK2 (unknown origin) at 1 uM by Ambit Kinomescan binding assay relative to control
[12] = molecular target: Tyrosine-protein kinase TXK (Homo sapiens) (UniProt P42681); assay: Inhibition of TXK (unknown origin) at 1 uM by Ambit Kinomescan binding assay relative to control
[13] = molecular target: 5'-AMP-activated protein kinase catalytic subunit alpha-1 (Homo sapiens) (UniProt Q13131); assay: Inhibition of AMPKa1 Lys2 labeling site in human A-375 cells at 5 uM by KiNativ Profiling analysis relative to control; type: cell-based
Sequence of 5'-AMP-activated protein kinase catalytic subunit alpha-1 (Homo sapiens) (Q13131 whole entry, looked up): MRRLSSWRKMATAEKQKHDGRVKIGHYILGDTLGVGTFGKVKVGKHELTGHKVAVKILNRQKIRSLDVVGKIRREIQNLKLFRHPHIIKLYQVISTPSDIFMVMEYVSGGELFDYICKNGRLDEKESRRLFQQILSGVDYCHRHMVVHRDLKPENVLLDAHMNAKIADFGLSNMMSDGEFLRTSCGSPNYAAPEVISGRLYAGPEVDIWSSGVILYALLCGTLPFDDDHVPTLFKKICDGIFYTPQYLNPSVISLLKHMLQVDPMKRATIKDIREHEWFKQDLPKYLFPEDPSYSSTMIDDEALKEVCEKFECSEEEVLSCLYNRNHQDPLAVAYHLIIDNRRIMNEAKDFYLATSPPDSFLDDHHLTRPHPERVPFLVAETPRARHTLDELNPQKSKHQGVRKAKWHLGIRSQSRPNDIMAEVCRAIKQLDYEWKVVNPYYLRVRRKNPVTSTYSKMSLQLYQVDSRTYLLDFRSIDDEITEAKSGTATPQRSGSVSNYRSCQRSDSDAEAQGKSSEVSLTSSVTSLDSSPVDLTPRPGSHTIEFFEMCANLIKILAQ

Sequence of Calcium/calmodulin-dependent protein kinase type 1 (Homo sapiens) (Q14012 whole entry, looked up): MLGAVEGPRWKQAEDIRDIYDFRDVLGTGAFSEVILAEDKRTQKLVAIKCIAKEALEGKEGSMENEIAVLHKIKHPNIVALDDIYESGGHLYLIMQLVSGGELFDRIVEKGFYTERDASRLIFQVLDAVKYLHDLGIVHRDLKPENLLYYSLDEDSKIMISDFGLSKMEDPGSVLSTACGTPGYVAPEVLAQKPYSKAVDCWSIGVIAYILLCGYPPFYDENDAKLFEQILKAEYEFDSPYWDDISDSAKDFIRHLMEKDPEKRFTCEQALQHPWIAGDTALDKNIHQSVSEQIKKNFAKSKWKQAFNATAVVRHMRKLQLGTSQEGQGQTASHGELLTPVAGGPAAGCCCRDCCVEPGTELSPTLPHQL
Sequence of Serine/threonine-protein kinase RIO2 (Homo sapiens) (Q9BVS4 whole entry, looked up): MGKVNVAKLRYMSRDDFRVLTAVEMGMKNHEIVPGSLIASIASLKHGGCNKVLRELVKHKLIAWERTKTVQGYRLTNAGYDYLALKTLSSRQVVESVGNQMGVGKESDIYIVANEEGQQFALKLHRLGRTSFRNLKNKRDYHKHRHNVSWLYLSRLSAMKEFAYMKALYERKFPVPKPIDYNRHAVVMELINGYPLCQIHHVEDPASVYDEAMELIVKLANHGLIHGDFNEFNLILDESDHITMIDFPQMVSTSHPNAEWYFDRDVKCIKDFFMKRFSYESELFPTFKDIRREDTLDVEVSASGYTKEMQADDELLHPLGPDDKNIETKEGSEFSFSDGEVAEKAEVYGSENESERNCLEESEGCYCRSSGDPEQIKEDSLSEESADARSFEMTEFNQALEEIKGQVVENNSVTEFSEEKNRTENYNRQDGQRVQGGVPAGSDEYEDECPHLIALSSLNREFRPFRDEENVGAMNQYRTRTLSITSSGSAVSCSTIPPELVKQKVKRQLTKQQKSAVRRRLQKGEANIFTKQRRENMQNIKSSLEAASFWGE
Sequence of Ribosomal protein S6 kinase alpha-3 (Homo sapiens) (P51812 whole entry, the tested form may be a part): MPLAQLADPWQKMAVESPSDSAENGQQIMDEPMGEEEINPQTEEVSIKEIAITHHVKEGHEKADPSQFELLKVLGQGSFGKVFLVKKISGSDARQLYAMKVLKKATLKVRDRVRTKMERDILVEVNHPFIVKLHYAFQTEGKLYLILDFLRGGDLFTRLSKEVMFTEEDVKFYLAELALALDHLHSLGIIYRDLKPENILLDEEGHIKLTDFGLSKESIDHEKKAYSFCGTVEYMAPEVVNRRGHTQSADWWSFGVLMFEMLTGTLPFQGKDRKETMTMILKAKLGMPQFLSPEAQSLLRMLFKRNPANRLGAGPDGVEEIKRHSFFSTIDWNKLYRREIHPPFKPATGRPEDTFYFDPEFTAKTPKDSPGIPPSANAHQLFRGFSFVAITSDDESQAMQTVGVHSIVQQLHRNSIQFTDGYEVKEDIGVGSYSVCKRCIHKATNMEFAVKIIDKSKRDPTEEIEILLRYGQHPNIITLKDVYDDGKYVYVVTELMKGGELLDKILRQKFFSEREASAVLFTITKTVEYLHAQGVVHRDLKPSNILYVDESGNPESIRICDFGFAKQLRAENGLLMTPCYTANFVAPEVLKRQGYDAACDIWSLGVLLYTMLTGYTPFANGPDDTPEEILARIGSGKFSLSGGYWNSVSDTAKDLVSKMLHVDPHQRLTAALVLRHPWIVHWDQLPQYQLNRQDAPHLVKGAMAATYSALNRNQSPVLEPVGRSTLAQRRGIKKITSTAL
Sequence of Serine/threonine-protein kinase 10 (Homo sapiens) (O94804 whole entry, looked up, the tested form may be a part): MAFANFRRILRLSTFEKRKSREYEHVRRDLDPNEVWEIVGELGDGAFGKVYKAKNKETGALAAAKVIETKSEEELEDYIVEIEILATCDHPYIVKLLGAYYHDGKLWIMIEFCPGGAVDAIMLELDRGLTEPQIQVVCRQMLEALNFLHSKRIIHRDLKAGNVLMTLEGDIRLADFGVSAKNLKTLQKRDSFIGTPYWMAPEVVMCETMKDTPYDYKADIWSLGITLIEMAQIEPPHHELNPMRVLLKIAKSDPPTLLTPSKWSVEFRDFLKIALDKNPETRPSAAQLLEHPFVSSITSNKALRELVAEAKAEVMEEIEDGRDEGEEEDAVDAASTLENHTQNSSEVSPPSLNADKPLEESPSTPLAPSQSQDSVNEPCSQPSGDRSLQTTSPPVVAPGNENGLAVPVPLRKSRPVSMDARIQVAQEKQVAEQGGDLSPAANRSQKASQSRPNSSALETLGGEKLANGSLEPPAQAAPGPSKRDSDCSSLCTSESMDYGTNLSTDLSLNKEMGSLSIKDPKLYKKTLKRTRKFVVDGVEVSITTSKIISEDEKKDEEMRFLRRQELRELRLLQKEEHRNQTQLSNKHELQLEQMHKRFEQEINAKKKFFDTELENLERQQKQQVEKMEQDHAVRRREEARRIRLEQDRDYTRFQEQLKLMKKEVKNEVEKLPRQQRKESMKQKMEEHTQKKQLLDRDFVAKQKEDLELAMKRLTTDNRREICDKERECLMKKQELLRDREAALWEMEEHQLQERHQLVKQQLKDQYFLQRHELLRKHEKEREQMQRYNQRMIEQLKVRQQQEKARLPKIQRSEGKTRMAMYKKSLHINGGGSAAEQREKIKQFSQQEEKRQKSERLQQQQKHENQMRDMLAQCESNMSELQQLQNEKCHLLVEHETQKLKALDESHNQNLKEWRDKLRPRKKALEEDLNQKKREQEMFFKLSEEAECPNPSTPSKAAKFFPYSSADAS
Sequence of Tyrosine-protein kinase TXK (Homo sapiens) (P42681 whole entry): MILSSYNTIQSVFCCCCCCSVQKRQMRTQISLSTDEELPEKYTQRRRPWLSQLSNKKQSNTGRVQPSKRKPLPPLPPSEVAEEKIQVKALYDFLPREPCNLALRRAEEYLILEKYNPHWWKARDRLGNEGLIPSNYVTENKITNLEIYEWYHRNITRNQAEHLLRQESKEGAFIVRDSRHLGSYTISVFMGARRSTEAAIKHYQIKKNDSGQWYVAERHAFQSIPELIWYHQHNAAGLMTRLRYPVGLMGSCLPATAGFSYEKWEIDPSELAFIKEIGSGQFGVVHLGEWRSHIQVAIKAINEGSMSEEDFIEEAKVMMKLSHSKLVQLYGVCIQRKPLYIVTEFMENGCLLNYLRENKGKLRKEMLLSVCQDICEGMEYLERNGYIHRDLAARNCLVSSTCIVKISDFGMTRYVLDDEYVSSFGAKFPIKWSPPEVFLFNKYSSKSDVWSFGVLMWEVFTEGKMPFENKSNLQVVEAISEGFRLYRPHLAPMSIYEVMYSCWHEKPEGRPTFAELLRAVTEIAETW
Sequence of Dual specificity protein kinase CLK1 (Homo sapiens) (P49759 whole entry, looked up): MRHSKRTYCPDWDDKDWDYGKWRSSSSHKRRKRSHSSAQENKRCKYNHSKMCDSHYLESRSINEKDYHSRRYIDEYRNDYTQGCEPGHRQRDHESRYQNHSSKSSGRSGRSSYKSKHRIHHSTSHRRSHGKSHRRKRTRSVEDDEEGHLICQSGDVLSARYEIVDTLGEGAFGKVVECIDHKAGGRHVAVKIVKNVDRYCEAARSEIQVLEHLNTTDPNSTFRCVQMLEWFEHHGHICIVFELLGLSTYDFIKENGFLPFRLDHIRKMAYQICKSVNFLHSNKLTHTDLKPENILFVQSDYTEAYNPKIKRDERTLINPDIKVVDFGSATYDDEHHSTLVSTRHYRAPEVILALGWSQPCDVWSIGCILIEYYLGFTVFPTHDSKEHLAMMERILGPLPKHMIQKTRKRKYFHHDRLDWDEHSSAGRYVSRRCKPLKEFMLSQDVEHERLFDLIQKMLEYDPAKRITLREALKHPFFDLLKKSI

Structure (SMILES): CNc1cc(Oc2cc(C(=O)Nc3cc(N4CCN(C)CC4)cc(C(F)(F)F)c3)ccc2C)ncn1
- inhibition [1]: 4.2%
- inhibition [2]: 14.4%
- inhibition [3]: 19%
- inhibition [4]: 20.7%

Structure (SMILES): CCN1CCN(Cc2ccc(NC(=O)c3ccc(C)c(Oc4ccnc5[nH]ccc45)c3)cc2C(F)(F)F)CC1
- inhibition [5]: 19%
- inhibition [6]: -7.1%
- inhibition [7]: 2.8%
- inhibition [8]: inactive
- inhibition [9]: 9.4%
- inhibition [10]: inactive

Structure (SMILES): CCN1CCN(Cc2ccc(NC(=O)c3ccc(C)c(/C=C/c4cnc5[nH]ccc5c4OC)c3)cc2C(F)(F)F)CC1
- inhibition [11]: 61%
- inhibition [12]: 1.4%
- inhibition [13]: 18.5%

Reference: ChEMBL document CHEMBL5696442, “Discovery of type II inhibitors of TGFβ-activated kinase 1 (TAK1) and mitogen-activated protein kinase kinase kinase kinase 2 (MAP4K2)” (J Med Chem, 2015)
